Counter-ions that a name gives are not always drawn. The source made the active and inactive calls.
Experiments:
[1] = cytotoxicity in HPDE-C7 cells, cell-based, fluorescence, HTS (AID 430); type: functional; conditions: Homo sapiens
[2] = cytotoxicity in KRAS-transformed pancreatic duct cells, primary screen, cell-based, fluorescence, HTS (AID 431); type: functional; conditions: Homo sapiens;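 further: cell line used: HPDE-C7K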
[3] = target: T1, Ubiquitin-conjugating enzyme E2 N (Homo sapiens, UniProt P61088); type: functional;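 further: Dose-response confirmation in a TR-FRET assay detecting UBC13-driven polyubiquitin chain formation, inhibition measured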
T1 sequence (P61088 whole entry): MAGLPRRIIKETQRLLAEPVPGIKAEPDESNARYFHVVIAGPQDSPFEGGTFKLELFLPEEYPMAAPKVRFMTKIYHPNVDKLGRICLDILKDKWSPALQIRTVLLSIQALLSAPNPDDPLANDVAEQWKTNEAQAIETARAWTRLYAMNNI

[4] = M. tuberculosis growth inhibition, HTS (AID 449762); type: functional
[5] = target: Calpain-2 catalytic subunit (Sus scrofa, UniProt P43367); assay: pig calpain II inhibitor potency, dose response, biochemical, fluorogenic peptide substrate (AID 1420); type: functional
Chain of Calpain-2 catalytic subunit (P43367 whole entry): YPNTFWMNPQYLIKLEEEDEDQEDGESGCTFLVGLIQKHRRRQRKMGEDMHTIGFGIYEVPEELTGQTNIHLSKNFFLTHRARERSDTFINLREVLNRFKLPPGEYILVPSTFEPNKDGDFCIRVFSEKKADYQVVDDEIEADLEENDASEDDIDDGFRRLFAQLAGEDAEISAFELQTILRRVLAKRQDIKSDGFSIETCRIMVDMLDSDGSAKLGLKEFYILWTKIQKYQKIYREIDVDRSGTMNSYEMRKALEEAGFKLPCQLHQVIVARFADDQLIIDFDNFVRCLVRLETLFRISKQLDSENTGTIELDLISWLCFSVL

[6] = inhibitors of Vif binding to APOBEC3G peptide, primary screen, biochemical, TR-FRET, GST-Vif 1-94, biotin-A3G peptide, dose response retest (AID 1117319); type: functional;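 further: TR-FRET signal of purified GST-Vif binding a biotinylated A3G peptide; inhibitors lower the FRET signal by blocking Vif and A3G binding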
Beta-galactosidase = Beta-galactosidase (Escherichia coli, UniProt Q8VNN2); assay: PubChem AID 485352; type: functional
Chain of Beta-galactosidase (Q8VNN2 whole entry): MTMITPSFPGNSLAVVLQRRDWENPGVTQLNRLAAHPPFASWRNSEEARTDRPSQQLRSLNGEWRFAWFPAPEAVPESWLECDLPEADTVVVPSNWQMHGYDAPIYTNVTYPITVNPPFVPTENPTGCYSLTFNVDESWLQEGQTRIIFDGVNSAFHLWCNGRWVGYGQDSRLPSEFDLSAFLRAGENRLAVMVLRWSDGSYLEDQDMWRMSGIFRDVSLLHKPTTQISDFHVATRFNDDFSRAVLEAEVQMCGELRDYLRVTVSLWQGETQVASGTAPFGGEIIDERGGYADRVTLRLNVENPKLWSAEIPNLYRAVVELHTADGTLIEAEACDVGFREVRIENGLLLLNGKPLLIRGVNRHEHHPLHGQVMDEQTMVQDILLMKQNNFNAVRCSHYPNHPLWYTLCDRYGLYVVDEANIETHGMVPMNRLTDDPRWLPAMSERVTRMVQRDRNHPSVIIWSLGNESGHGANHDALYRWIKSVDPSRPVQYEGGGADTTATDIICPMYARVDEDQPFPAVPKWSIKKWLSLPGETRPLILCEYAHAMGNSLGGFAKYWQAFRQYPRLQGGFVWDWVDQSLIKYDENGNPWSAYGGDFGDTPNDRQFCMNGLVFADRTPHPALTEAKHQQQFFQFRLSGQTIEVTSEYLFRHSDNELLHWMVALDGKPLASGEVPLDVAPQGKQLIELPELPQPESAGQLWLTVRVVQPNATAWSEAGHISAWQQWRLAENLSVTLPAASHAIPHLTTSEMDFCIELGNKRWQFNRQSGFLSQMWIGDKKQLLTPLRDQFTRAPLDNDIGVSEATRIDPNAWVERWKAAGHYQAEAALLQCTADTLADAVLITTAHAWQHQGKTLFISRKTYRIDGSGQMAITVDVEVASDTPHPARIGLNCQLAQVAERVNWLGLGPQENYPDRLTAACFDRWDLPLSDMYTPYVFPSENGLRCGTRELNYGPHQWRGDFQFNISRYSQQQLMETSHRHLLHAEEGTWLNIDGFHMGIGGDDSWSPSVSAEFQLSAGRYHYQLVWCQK

[7] = target: T2, Type-1 angiotensin II receptor (Homo sapiens, UniProt P30556); assay: AT1 receptor antagonists, dose response, selectivity assay for APJ receptor antagonist project, cell-based, uHTS hits (AID 463214); type: functional;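 further: antagonist potency against angiotensin II stimulated AT1 response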
T2 sequence (P30556 whole entry): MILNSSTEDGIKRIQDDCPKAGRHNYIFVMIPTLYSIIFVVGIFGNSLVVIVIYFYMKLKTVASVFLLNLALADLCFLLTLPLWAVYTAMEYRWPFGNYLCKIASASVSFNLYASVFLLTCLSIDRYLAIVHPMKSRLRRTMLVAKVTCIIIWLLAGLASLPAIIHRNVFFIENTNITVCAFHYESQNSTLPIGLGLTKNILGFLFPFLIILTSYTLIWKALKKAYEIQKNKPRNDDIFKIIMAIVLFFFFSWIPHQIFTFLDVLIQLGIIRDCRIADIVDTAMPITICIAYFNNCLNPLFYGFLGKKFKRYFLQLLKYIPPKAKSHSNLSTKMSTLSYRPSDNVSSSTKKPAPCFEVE

[8] = cytotoxicity in HEK-293T cells, dose response, cytotoxicity control for TCR NF-kB inhibitor project, luminescence, T-cell screen hits (AID 489026); type: functional, cell-based;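 further: cells exposed to compound about 14 hours before the viability readout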
Estrogen receptor beta = Estrogen receptor beta (Homo sapiens, UniProt Q92731); assay: ERβ–SRC-3 coactivator interaction inhibitors, confirmation, orthogonal assay, biochemical, ELISA, streptavidin-HRP readout (AID 1060)
Chain of Estrogen receptor beta (Q92731 whole entry): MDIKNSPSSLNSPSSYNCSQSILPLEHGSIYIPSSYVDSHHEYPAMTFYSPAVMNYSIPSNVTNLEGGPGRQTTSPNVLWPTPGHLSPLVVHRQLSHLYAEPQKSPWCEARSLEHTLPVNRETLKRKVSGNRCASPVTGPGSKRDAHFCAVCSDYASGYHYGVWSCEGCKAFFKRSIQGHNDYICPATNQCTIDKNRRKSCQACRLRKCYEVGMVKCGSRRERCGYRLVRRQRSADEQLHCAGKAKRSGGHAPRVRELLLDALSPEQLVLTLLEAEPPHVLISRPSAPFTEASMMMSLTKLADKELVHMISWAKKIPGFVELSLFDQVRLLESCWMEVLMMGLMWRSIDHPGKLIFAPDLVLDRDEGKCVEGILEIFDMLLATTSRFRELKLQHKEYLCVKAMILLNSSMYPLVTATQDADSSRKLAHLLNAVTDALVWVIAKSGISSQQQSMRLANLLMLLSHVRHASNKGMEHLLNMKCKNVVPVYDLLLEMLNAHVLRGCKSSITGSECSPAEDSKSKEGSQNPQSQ

[9] = Luminescent dose response cell-based high throughput screening assay for inhibitors of the Janus kinase 2 mutant JAK2V617F. [Related pubchem assays: 1446 (Primary screen.), 1521 (Confirmation assay.), 1486 (Counter screen.)]; type: functional
[10] = target: T3, Rac GTPase-activating protein 1 (Homo sapiens, UniProt Q9H0H5); assay: MgcRacGAP GTPase-activating activity inhibitors, confirmation, biochemical, ADP Hunter fluorescence, primary and confirmatory (AID 624330); type: functional
T3 sequence (Q9H0H5 whole entry): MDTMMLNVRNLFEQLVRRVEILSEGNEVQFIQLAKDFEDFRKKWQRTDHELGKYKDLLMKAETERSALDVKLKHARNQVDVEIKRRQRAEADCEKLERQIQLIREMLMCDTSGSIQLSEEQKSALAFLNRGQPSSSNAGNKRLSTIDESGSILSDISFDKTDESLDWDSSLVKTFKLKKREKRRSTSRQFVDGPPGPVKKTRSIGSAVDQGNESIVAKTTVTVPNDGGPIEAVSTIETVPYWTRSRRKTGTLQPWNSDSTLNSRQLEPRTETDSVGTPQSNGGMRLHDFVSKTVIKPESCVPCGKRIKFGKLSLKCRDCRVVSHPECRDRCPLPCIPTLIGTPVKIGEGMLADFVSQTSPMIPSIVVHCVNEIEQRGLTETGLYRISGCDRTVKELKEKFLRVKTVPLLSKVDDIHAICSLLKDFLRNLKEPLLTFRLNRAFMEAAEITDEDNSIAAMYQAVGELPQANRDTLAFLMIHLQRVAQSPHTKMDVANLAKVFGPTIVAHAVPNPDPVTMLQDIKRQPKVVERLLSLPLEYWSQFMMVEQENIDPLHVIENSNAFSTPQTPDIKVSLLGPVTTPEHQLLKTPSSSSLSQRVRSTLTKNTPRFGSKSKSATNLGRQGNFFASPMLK

[11] = target: T4, Mannose-6-phosphate isomerase (Homo sapiens, UniProt P34949); assay: inhibitors of human PMI, primary screen, biochemical, fluorescence intensity, coupled assay (AID 1209)
T4 sequence (P34949 whole entry): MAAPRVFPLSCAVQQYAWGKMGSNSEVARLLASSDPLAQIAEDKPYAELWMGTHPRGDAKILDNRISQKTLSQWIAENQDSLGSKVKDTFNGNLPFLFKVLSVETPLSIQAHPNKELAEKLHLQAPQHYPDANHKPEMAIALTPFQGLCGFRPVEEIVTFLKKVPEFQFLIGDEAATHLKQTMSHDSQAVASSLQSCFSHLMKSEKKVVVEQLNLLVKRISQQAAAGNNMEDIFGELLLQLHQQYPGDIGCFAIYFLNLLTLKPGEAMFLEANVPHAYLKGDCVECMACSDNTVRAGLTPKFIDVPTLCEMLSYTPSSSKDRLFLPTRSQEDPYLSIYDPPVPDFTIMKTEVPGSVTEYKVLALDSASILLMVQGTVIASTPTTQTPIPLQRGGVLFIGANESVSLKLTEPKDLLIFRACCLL

Structure (SMILES): CNCCC(Oc1ccc(C(F)(F)F)cc1)c1ccccc1 (stereo unspecified) [FLUOXETINE HYDROCHLORIDE]
- EC50 [1]: > 20 µM (not active)
- EC50 [2]: > 20 µM (not active)
- IC50 [3]: > 20 µM (inactive)

Structure (SMILES): Cn1ccnc1C(O)c1cc(C(C)(C)C)c(O)c(C(C)(C)C)c1 (stereo unspecified)
- IC50 [4]: > 100 µM (active)

Structure (SMILES): Cc1ccc2nc(NC(=O)CN(C)S(=O)(=O)c3cccc4nsnc34)sc2c1
- IC50 [5]: > 50 µM (not active)

Structure (SMILES): CC(=O)c1ccc(S(=O)(=O)Nc2cccc(-c3ccc(N4CCOCC4)nn3)c2)cc1
- IC50 [6]: > 100 µM (active)

Structure (SMILES): CCOC(=O)/C=C/S(=O)(=O)c1ccc(NC(C)=O)cc1
- EC50 (Beta-galactosidase): > 40 µM (inactive)
- EC50 [1]: 8.93 µM (active)
- EC50 [2]: 10.4 µM (active)
- IC50 [7]: 9.22 µM (active)
- IC50 [8]: > 80 µM (inactive)

Structure (SMILES): CC1CCCCN1CC(=O)Nc1sc2c(c1C#N)CCCC2 (stereo unspecified)
- IC50 (Estrogen receptor beta): 0.0301 µM (not active)

Structure (SMILES): Oc1ccc(Cl)cc1/N=C/c1sc2ccccc2c1Cl
- IC50 [9]: 1.15 µM (active)
- IC50 [10]: 20.4 µM (active)

Structure (SMILES): COc1ccc(N2CN=C3SCC(=O)N3C2)cc1
- IC50 [4]: > 100 µM (active)

Structure (SMILES): CCOC(=O)c1ccc(N2C(=O)CC(SCC(=O)Nc3ccc(S(N)(=O)=O)cc3)C2=O)cc1 (stereo unspecified)
- IC50 [11]: 28.1 µM (active)

Reference: ChEMBL document CHEMBL1201862, “PubChem BioAssay data set” (2004)
